What was measured:
[1] = tested on: apical-out organoids formed from human bronchial epithelial cells; assay: Counting ciliated cells among dissociated apical-out airway organoids; type: cell-based; settings: FIG. 3; for percentage of ciliated cells: first donor, highest concentrations of the titrated inhibitor in the organoid medium
Experimental: Cells were cultured and dissociated in accordance with Example 1, and seeded into Aggrewell™ 400 plates (STEMCELL Technologies) that were prepared in accordance with Example 2. Aggregates were generated by seeding roughly 1.2×10^5 cells per well (100 cells per microwell) of an Aggrewell™ 400 plate. The cells were seeded in 500 μL of apical-out organoid medium comprising a basal medium and an inhibitor of notch signaling. The AggreWell™ plate was centrifuged for 3 min at 100 g in order to sediment the cells to the bottom of the microwell. The plates were then incubated for 24 h to 144 h at 37° C. and 5% CO2.
(§1) After the aggregates were formed and sufficiently matured in accordance with Example 3, 500 μL of fresh apical-out airway organoid medium was added to each well. The aggregates were then resuspended using a P1000 pipette and each well distributed to two wells of a 24-well plate (prepared as described in Example 2). The aggregates were incubated under non-adherent conditions in apical-out airway organoid medium for up to 15 days. A partial medium change was performed every second day.
Apical-out airway organoids formed in accordance with Example 4 were harvested on day 15, transferred to a 15 ml tube, and centrifuged at 150 g for 5 min. The supernatant was removed, and the organoids were washed once with DMEM. The washed organoids were resuspended in ACCUTASE (STEMCELL Technologies) and were incubated for 15 minutes at room temperature, before being dissociated to single cells by pipetting vigorously with a P1000 pipette. The single-cell suspension was diluted 1:1 with trypan blue and was then loaded to a Hemocytometer where the cells were counted manually. At the time the dissociated cells are counted, the number of ciliated cells can also be determined by visual inspection.
In one experiment, apical-out organoids were formed from two donor samples in apical-out media formulated with different concentrations of an inhibitor of notch signaling and an inhibitor of TGFbeta signaling. […]

[2] = tested on: apical-out organoids generated from passage 6 pulmonary lineage cells; assay: Imaging of ciliation of apical-out organoids; type: cell-based, human; settings: passage 6 cells; medium comprising an inhibitor of TGFbeta signaling and Y-27632; FIG. 7A
Experimental: as §1
Fully mature organoids, formed in accordance with Example 4, were imaged using a standard microscope camera. For example, the organoids may be imaged using a Leica DMi8 or an EVOS M500.
Representative images of apical-out organoids generated from passage 6 pulmonary lineage cells from a donor are shown in FIG. 7.

| SMILES | percentage of ciliated cells [1] | emergence of ciliated cells ([1]; second donor, lower concentrations in the organoid medium) | ciliation of organoids (representative images) [2] |
| --- | --- | --- | --- |
| Cc1cccc(-c2[nH]ncc2-c2ccnc3ccccc23)n1 [A77-01] | decreased percentage of ciliated cells | detrimental to the emergence of ciliated cells | – |
| C[C@H](NC(=O)Cc1cc(F)cc(F)c1)C(=O)N[C@H](C(=O)OC(C)(C)C)c1ccccc1 [DAPT] | decreased percentage of ciliated cells | – | – |
| C[C@@H](N)[C@H]1CC[C@H](C(=O)Nc2ccncc2)CC1 [Y-27632] | – | – | patchy ciliation |

From patent publication US20240376436A1, “COMPOSITIONS AND METHODS FOR BIASING THE POLARITY OF ORGANOIDS” (STEMCELL TECHNOLOGIES CANADA INC., priority 2021, published 2024)
